In publication PMC12459184, “Design, synthesis, and bioevaluation of pyrazole-containing tubulin polymerisation inhibitors based on conformational constraint strategy” (Journal of Enzyme Inhibition and Medicinal Chemistry, 2025):
Read-outs that look alike come from different tables or passages of the source.

What was measured:
MCF-7 cells = assay: MTT antiproliferative assay, MCF-7; format: cell-based; details: Homo sapiens, read-out: IC50 (μM) ± SD MCF-7
Description: The in vitro antiproliferative activities of all target compounds 4a−k, 5a−h, and 6a−h were assayed by MTT method using human gastric cancer cell line SGC-7901 and human breast cancer cell line MCF-7.
(§1) All cell lines tested in this study were purchased from the American Type Culture Collection (ATCC, Manassas, VA). SGC-7901 (human gastric adenocarcinoma), HCT-116 (human colon carcinoma), and A549 (human pulmonary carcinoma) cells were cultured in RPMI-1640 medium containing 10% foetal serum (FBS) and 1% penicillin-streptomycin solution (100×). MCF-7 (human breast carcinoma) cells were cultured in DMEM medium containing 10% foetal serum (FBS) and 1% penicillin-streptomycin solution (100×). PC-3 (human prostate carcinoma) cells were cultured in Ham’s F-12K medium containing 10% foetal serum (FBS) and 1% penicillin-streptomycin solution (100×). All cells were cultured at 37 °C in a humidified atmosphere containing 5% CO2.
(§2) Cells grown in logarithmic phase were harvested and seeded onto 96-well cell plates at a density of 4 ∼ 5 × 10^3 cells per well (various from cell type) and were cultured for 24 h. Different concentrations of compounds were added into the wells, and the cells were cultured for another 72 h. The medium was removed, then 20 μL of MTT (5 mg/mL in PBS) was added to each well and the cells were incubated for 4 h. 150 μL of DMSO was added to each well to dissolve the formazan, and the absorbance at 490 nm of each well was measured by a microplate reader. IC50 values were calculated by SPSS software.

HCT-116 cells = assay: MTT antiproliferative assay, HCT-116; format: cell-based; details: Homo sapiens, 72 h drug exposure, read-out: IC50 (μM) ± SD HCT-116
Description: as §1, §2

A549 cells = assay: MTT antiproliferative assay, A549; format: cell-based; details: Homo sapiens, 72 h drug exposure, read-out: IC50 (μM) ± SD A549
Description: as §1, §2

PC-3 cells [1] = assay: MTT antiproliferative assay, PC-3; format: cell-based; details: Homo sapiens, 72 h drug exposure, read-out: IC50 (μM) ± SD PC-3
Description: as §1, §2

tubulin = assay: In vitro tubulin polymerisation assay; format: biochemical
Description: To investigate the effect of compounds 4k and 5a on microtubule system, their tubulin polymerisation inhibition activities were evaluated using in vitro tubulin polymerisation assay.
The BK001 kit used in this test was purchased from Cytoskeleton Inc. (Denver, CO, USA). […] Then the mixtures were transferred to 37 °C and tubulin assembly was monitored (excitation wavelength: 360 nm; emission wavelength: 420 nm) at 1 min intervals for 90 min by a microplate reader.

[2] = test system: microtubule network in PC-3 cells; assay: Immunofluorescence assay of microtubule network; format: cell-based, human; details: 50 nM, 24 h
Description: To evaluate the effects of 4k and 5a on intracellular microtubule, immunofluorescence assay was carried out to observe the changes of microtubule network in cell.
PC-3 cells in logarithmic phase were harvested and seeded onto 12-well cell plates with round coverslip on the bottom of each well at a density of 3 × 10^4 cells per well, and were cultured for 24 h. […] The medium was removed, and cells were washed with PBS twice, fixed with 4% formaldehyde in PBS for 30 min, then the solution was removed. Cells were washed with PBS twice, permeabilized with 0.2% (v/v) Triton X-100 in PBS for 30 min, then the solution was removed. Cells were washed with PBS twice, blocking the cells in 5% bovine serum albumin (BSA) for 30 min. Then BSA was removed, and cells were incubated with the primary α-tubulin antibody (Santa Cruz, CA) containing 2% BSA (v/v, 1: 100) overnight at 4 °C.
The following steps were operated in dark environment. The antibody was removed, then cells were washed with PBST twice and were added FITC-conjugated anti-mouse secondary antibody diluted (1:100) with 2% BSA in PBS and incubated at room temperature for 4 h. The cells were then washed with PBST twice, stained with 4′,6-diamidino-2-phenylindole (DAPI) for 30 min at room temperature, and washed with PBS twice. The round coverslips at the bottom of wells were taken out, and the images were photographed by a confocal microscope.

PC-3 cells [3] = assay: Cell cycle analysis by flow cytometry; format: cell-based, human; details: 24 h, vehicle 15%
Description: The G2/M phase of cell cycle involves mass physiological activities of microtubules, and tubulin polymerisation inhibitors could arrest cell cycle in G2/M phase by inhibiting microtubule polymerisation.
PC-3 cells in logarithmic phase were harvested and seeded onto 6-well cell plates at a density of 2.5 × 10^5 cells per well, and were cultured for 24 h. […] The cells were digested using trypsin and the suspended cells were harvested. Then the cells were washed with PBS and fixed in 75% ice-cold ethanol at 4 °C overnight. The fixed cells were harvested by centrifugation and washed with PBS, resuspended in 535 μL buffer containing 10 μL RNase (50 ×) and 25 μL PI (20 ×). After incubation at 37 °C in the dark for 30 min, the samples were filtered by nylon screen and detected by FACScan flow cytometry (BectoneDickinson, Franklin Lakes, NJ, USA).

PC-3 cells [4] = assay: Cell apoptosis analysis, Annexin V-FITC/PI flow cytometry; format: cell-based, human; details: 48 h
Description: To investigate the effect of 4k and 5a on cell apoptosis, flow cytometry was used to analyse the cell apoptosis of PC-3 cells. […] Early apoptosis cells could only be stained by Annexin V-FITC, while late apoptosis cells could be stained by both Annexin V-FITC and PI.
PC-3 cells in logarithmic phase were harvested and seeded onto 6-well cell plates at a density of 2.5 × 10^5 cells per well, and were cultured for 24 h. […] The cells were digested using trypsin and were harvested, washed twice with PBS, and resuspended in 500 μL binding buffer, followed by the addition of 100 μL of the cell suspension to 5 μL of Annexin V-FITC and 5 μL of PI. After stained for 15 min in a dark at room temperature, the samples were added 400 μL of binding buffer and detected by FACScan flow cytometry (BectoneDickinson, Franklin Lakes, NJ, USA).

PC-3 cells [5] = assay: Wound healing assay; format: cell-based, human; details: 24 h, control group 48.7%
Description: To investigate the effect of 4k and 5a on cell migration, wound healing assay was used on PC-3 cells.
PC-3 cells in logarithmic phase were harvested and seeded onto 12-well cell plates at a density of 2.5 × 10^5 cells per well, and were cultured for 24 h. Scratches were made in confluent monolayers using 200 μL pipette tip, and the cells were washing twice with PBS to remove all the non-adherent cells. […] Images of wounds were taken at 0 h and 24 h and analysed by Fiji/ImageJ software.

Row | IC50 (MCF-7 cells; MCF7, 72 h drug exposure, MTT assay) | Structure (SMILES) | IC50 (HCT-116 cells) | IC50 (A549 cells) | IC50 (PC-3 cells [1]) | effect on tubulin polymerisation (fluorescence intensity) (tubulin; 5 μM and 10 μM) | tubulin polymerisation inhibitory potency compared with colchicine (3 μM) (tubulin; 5 μM and 10 μM) | effect on microtubule network [2] | proportion of cells in G2/M phase (PC-3 cells [3]; 10–40 nM) | percentage of apoptosis cells (PC-3 cells [4]; PC-3, 10 nM, vehicle 18.3%) | percentage of apoptosis cells (PC-3 cells [4]; PC-3, 25 nM, vehicle 18.3%) | recover percentage of scratches (PC-3 cells [5]; PC-3, 10 nM) | recover percentage of scratches (PC-3 cells [5]; PC-3, 20 nM) | IC50 (MCF-7 cells; MCF7, 72 h) | effect on tubulin polymerisation (fluorescence intensity) (tubulin; 10 μM and 20 μM) | tubulin polymerisation inhibitory potency compared with colchicine (3 μM) (tubulin; 20 μM) | proportion of cells in G2/M phase (PC-3 cells [3]; 70 nM) | proportion of cells in G2/M phase (PC-3 cells [3]; 100 nM) | percentage of apoptosis cells (PC-3 cells [4]; PC-3, 100 nM, vehicle 18.2%) | percentage of apoptosis cells (PC-3 cells [4]; PC-3, 200 nM, vehicle 18.2%)
1 | 0.031 ± 0.005 µM | COc1cc(C(=O)c2nn(-c3ccc(N)cc3)cc2N)cc(OC)c1OC [4k, (4-amino-1–(4-aminophenyl)-1H-pyrazol-3-yl)(3,4,5-trimethoxyphenyl)methanone] | 0.01 ± 0.001 µM | 0.04 ± 0.012 µM | 0.015 ± 0.004 µM | inhibition of tubulin polymerisation | higher potency than colchicine | microtubule network was destroyed | 33–71% | 27.1% | 34.1% | 42.7% | 20.2% |  |  |  |  |  |  | 
2 |  | COc1cc(C2=NCC(=O)Nc3cn(-c4ccccc4)nc32)cc(OC)c1OC [5a, 2-Phenyl-8–(3,4,5-trimethoxyphenyl)-2,6-dihydropyrazolo[4,3-e][1,4]diazepin-5(4H)-one] | 0.163 ± 0.038 µM | 0.063 ± 0.017 µM | 0.006 ± 0.002 µM |  |  | microtubule network was destroyed |  |  |  | 32.3% | 23.3% | 1.78 ± 0.617 µM | inhibition of tubulin polymerisation | superior inhibitory potency compared to colchicine | 35% | 71% | 26.6% | 41.5%
